Values of other authors, collected in patent US12721834B2, “Combination treatment for Netherton syndrome” (Quoin Pharmaceuticals Inc., priority 2023, dated 2026).

Details: in vivo

Row | Substance | dermal toxicity
1 | Poly(vinylpyrrolidone/1-eicosene) [PVPE] | no demonstrable dermal toxicity
2 | Poly(vinylpyrrolidone/1-hexadecene) [PVPH] | no demonstrable dermal toxicity
